# According to the kinase profiling compilation of Christmann-Franck et al. (2016):
# Assays:
# Test in all cases: radiometric filter-binding kinase assay
# [1] = target: PKN2 (human) (UniProt Q16513)
# [2] = target: MAP2K2 (human) (UniProt P36507)
# [3] = system: PAK2 (human), Q13177 [T402E]
# [4] = target: ERBB4 (human) (UniProt Q15303)
# [5] = target: EPHB1 (human) (UniProt P54762)
# [6] = target: CaMK1 (human) (UniProt Q14012)
# [7] = target: TEK (human) (UniProt Q02763)
# [8] = target: MAP2K6 (human) (UniProt P52564)
# [9] = target: MAPK11 (human) (UniProt Q15759)
# [10] = target: PAK4 (human) (UniProt O96013)
# [11] = target: CLK2 (human) (UniProt P49760)
# [12] = target: TTK (human) (UniProt P33981)
# [13] = target: TAOK1 (human) (UniProt Q7L7X3)
# [14] = target: MAPK3 (human) (UniProt P27361)
# Chain of MAPK3 (human) (P27361 whole entry, looked up): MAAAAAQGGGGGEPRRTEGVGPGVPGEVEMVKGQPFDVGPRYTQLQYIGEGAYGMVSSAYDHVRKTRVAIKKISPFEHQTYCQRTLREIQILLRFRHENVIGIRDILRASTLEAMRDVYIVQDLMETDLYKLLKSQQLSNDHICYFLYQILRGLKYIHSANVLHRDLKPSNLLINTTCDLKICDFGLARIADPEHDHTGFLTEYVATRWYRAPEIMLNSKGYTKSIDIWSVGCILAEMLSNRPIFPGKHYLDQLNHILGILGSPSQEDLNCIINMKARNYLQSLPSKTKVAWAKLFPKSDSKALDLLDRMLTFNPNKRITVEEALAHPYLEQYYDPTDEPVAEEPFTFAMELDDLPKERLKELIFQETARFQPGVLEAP
# Chain of CaMK1 (human) (Q14012 whole entry, looked up): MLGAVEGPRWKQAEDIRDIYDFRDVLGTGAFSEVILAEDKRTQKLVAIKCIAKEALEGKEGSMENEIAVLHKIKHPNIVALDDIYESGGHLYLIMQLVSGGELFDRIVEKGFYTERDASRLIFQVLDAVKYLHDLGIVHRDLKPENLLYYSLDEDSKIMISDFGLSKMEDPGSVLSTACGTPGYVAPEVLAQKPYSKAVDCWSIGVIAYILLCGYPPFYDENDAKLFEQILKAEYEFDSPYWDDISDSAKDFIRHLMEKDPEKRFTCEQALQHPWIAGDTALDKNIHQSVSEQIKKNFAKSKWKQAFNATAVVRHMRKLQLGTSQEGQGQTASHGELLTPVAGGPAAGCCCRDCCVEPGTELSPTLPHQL
# Chain of ERBB4 (human) (Q15303 whole entry, looked up): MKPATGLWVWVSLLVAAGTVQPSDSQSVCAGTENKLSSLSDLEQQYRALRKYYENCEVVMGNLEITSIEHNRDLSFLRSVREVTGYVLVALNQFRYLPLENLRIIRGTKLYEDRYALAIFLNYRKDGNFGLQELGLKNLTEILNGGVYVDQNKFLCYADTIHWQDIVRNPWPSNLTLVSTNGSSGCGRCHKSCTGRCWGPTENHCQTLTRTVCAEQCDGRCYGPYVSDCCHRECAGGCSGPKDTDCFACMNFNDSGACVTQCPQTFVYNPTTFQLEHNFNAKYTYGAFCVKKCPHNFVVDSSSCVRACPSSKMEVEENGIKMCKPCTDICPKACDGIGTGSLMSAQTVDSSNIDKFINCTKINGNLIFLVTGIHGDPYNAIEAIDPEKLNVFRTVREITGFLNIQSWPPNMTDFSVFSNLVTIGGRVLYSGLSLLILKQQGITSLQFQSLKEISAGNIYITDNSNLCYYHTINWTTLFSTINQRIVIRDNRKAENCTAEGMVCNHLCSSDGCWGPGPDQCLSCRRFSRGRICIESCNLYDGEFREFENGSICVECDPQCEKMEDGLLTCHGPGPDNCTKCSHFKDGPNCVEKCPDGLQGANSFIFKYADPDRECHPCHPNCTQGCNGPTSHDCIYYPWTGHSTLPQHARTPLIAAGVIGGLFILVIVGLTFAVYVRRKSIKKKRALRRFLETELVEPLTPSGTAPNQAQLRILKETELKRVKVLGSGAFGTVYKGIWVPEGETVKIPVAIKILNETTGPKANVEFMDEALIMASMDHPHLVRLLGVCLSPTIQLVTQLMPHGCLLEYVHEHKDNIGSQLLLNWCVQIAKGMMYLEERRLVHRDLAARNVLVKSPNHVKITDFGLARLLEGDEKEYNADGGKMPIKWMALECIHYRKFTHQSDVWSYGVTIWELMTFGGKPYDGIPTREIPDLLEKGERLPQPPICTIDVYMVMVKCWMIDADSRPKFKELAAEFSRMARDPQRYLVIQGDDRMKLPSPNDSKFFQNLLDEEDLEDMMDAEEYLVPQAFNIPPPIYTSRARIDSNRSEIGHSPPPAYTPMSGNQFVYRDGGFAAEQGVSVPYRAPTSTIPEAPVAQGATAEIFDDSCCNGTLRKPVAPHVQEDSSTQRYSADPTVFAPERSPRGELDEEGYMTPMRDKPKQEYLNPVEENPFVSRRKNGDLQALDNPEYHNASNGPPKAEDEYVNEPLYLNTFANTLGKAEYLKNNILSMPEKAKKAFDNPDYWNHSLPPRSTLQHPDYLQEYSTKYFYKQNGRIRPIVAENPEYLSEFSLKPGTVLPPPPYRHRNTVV
# Chain of TAOK1 (human) (Q7L7X3 whole entry, looked up): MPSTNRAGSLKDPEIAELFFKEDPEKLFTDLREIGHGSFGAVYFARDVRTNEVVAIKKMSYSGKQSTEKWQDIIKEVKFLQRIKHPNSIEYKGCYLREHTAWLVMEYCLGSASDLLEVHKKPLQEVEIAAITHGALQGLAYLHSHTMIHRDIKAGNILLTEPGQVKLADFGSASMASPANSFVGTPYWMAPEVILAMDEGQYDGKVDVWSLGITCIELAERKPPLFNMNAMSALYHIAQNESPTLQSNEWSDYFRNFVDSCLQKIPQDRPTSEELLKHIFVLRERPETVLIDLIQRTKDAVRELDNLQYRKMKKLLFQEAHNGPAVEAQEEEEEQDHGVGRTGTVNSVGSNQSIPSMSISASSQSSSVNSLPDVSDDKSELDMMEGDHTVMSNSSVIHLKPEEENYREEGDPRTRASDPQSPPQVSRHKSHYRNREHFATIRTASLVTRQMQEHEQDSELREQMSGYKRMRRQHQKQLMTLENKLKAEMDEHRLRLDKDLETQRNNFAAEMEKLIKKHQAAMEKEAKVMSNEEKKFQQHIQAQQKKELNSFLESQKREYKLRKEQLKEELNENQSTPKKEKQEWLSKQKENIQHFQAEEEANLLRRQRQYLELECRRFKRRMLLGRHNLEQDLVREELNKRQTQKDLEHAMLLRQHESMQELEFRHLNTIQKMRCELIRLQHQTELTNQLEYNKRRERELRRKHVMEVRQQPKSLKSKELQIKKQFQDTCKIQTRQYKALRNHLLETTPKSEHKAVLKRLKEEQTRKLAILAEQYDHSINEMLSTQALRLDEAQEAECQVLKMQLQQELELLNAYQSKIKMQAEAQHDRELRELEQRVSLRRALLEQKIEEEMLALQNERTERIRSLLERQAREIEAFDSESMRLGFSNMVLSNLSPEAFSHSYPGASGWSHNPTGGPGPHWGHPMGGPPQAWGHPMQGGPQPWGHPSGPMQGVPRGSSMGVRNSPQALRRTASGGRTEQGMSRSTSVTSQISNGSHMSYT
# Chain of CLK2 (human) (P49760 whole entry, looked up): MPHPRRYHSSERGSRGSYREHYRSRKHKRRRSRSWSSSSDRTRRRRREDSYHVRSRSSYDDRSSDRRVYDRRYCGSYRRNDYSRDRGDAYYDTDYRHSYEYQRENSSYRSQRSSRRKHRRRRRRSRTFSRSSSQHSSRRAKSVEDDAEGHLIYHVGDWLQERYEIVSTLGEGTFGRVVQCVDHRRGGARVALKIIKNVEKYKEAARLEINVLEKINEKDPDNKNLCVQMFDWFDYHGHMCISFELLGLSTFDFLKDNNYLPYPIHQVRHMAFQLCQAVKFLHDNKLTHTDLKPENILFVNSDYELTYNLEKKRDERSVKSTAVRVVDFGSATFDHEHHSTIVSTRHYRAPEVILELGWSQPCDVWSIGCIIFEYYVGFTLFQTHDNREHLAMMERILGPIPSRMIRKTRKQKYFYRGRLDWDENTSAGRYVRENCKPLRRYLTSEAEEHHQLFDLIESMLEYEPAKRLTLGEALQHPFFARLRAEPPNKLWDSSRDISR
# Chain of PAK2 (human), Q13177 [T402E] (Q13177 whole entry T402E, looked up): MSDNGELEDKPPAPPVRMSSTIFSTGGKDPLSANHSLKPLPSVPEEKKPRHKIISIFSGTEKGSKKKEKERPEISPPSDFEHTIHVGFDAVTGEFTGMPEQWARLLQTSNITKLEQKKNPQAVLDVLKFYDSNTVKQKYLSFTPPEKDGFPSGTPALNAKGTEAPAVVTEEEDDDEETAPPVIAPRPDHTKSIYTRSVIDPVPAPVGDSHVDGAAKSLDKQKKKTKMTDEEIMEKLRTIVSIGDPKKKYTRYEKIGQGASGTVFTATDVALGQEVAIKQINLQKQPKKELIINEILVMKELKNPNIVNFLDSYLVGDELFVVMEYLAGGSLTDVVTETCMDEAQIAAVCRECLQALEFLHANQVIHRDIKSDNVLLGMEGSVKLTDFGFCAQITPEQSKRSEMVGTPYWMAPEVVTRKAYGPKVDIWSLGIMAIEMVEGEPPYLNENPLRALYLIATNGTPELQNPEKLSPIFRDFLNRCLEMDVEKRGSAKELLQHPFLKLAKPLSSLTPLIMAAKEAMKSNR
# Chain of MAP2K2 (human) (P36507 whole entry, looked up): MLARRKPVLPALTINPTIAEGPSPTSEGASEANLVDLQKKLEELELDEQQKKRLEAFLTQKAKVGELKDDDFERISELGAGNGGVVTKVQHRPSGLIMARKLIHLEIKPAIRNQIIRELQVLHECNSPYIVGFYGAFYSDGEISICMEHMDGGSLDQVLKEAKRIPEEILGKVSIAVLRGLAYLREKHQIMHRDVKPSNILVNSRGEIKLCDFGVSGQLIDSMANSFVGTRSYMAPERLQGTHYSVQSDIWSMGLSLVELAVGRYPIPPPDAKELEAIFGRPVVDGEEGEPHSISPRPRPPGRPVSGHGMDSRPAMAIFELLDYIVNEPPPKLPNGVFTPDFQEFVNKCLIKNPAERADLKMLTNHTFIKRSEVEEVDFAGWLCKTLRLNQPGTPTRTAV
# Chain of MAP2K6 (human) (P52564 whole entry, looked up): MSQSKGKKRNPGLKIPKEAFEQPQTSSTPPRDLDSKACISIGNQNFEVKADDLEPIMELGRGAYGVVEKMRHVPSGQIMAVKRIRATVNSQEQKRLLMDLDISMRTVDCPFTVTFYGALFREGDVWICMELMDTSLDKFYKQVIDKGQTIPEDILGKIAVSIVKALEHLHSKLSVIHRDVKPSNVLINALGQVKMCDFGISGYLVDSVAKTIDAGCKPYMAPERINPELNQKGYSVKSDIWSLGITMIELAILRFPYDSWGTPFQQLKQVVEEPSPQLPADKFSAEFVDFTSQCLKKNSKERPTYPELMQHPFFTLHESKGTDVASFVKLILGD
smiles,measurement,setting,value
CCN1CCN(Cc2ccc(NC(=O)c3ccc(C)c(Oc4ccnc5[nH]ccc45)c3)cc2C(F)(F)F)CC1,residual activity,[1]; compound 0.1 µM,102%
same,residual activity,[1]; compound 1.0 µM,93.3%
same,residual activity,[1]; compound 10.0 µM,78.6%
same,residual activity,[2]; compound 0.1 µM,131%
same,residual activity,[2]; compound 1.0 µM,116%
same,residual activity,[2]; compound 10.0 µM,96.8%
same,residual activity,[3]; compound 0.1 µM,116%
same,residual activity,[3]; compound 1.0 µM,100%
same,residual activity,[3]; compound 10.0 µM,68.6%
same,residual activity,[4]; compound 0.1 µM,105%
same,residual activity,[4]; compound 1.0 µM,76.8%
same,residual activity,[4]; compound 10.0 µM,36.9%
same,residual activity,[5]; compound 0.1 µM,111%
same,residual activity,[5]; compound 1.0 µM,106%
same,residual activity,[5]; compound 10.0 µM,66.9%
same,residual activity,[6]; compound 0.1 µM,68.7%
same,residual activity,[6]; compound 1.0 µM,17.2%
same,residual activity,[6]; compound 10.0 µM,3.79%
same,residual activity,[7]; compound 0.1 µM,95.2%
same,residual activity,[7]; compound 1.0 µM,91.2%
same,residual activity,[7]; compound 10.0 µM,60.4%
same,residual activity,[8]; compound 0.1 µM,118%
same,residual activity,[8]; compound 1.0 µM,158%
same,residual activity,[8]; compound 10.0 µM,133%
same,residual activity,[9]; compound 0.1 µM,74.9%
same,residual activity,[9]; compound 1.0 µM,16.6%
same,residual activity,[9]; compound 10.0 µM,9.04%
same,residual activity,[10]; compound 0.1 µM,109%
same,residual activity,[10]; compound 1.0 µM,99.4%
same,residual activity,[10]; compound 10.0 µM,77.8%
same,residual activity,[11]; compound 0.1 µM,115%
same,residual activity,[11]; compound 1.0 µM,104%
same,residual activity,[11]; compound 10.0 µM,75.8%
same,residual activity,[12]; compound 0.1 µM,91.2%
same,residual activity,[12]; compound 1.0 µM,98.1%
same,residual activity,[12]; compound 10.0 µM,66.1%
same,residual activity,[13]; compound 0.1 µM,98.9%
same,residual activity,[13]; compound 1.0 µM,67.3%
same,residual activity,[13]; compound 10.0 µM,26.9%
same,residual activity,[14]; compound 0.1 µM,99%
same,residual activity,[14]; compound 1.0 µM,103%
same,residual activity,[14]; compound 10.0 µM,99.7%
